Measured values from patent US20230266302A1, “SYNTHESIS AND USE OF N-BENZYL SULFONAMIDES” (THE UNIVERSITY OF TULSA, priority 2020, published 2023).

These compounds were tested on BxPC3 (pancreatic cancer) (assay: ATP level assay (CellTiter-Glo), percent of control). Details: Homo sapiens, BXPC-3, 2 h; compound alone, 100 uM, two hour incubation, control DMSO; read-out: POC (percent of control) BxPC3.
Format: cell-based
Compound `O=S(=O)(NCc1c[nH]c2ccccc12)c1ccccc1` [Compound 3, N-[(1H-indol-3-yl)methyl]benzenesulfonamide] has an activity at 100 µM of 96.8%.

Same assay, conditions: compound 100 uM + rotenone (approximately 1.25 μM), two hour incubation
In the case of `O=S(=O)(NCc1c[nH]c2ccccc12)c1ccccc1` [Compound 3, N-[(1H-indol-3-yl)methyl]benzenesulfonamide], the “POC (percent of control) BxPC3” value is reported as 84.5% of control.

Each compound was assayed on H293 (kidney cancer) in the same assay as above. Details: 2 h; compound alone, 100 uM, two hour incubation, control DMSO; read-out: POC (percent of control) H293.
Format: cell-based
Work on `O=S(=O)(NCc1c[nH]c2ccccc12)c1ccccc1` [Compound 3, N-[(1H-indol-3-yl)methyl]benzenesulfonamide] yielded an activity at 100 µM of 74.3%.

Same assay, conditions: compound 100 uM + 2DG (about 10-20 mM), two hour incubation
For `O=S(=O)(NCc1c[nH]c2ccccc12)c1ccccc1` [Compound 3, N-[(1H-indol-3-yl)methyl]benzenesulfonamide], the “POC (percent of control) H293” value was 42.8% of control.

Same assay, conditions: compound 100 uM + rotenone (approximately 1.25 μM), two hour incubation
In the case of `O=S(=O)(NCc1c[nH]c2ccccc12)c1ccccc1` [Compound 3, N-[(1H-indol-3-yl)methyl]benzenesulfonamide], the “POC (percent of control) H293” value is reported as 69.3% of control.

The compounds below were run on HDF (normal cells) in the same assay as above. Details: 2 h; compound alone, 100 uM, two hour incubation, control DMSO; read-out: POC (percent of control) HDF.
Format: cell-based
With `O=S(=O)(NCc1c[nH]c2ccccc12)c1ccccc1` [Compound 3, N-[(1H-indol-3-yl)methyl]benzenesulfonamide] the activity at 100 µM was 84.5%.

Same assay, conditions: compound 100 uM + 2DG (about 10-20 mM), two hour incubation
In the case of `O=S(=O)(NCc1c[nH]c2ccccc12)c1ccccc1` [Compound 3, N-[(1H-indol-3-yl)methyl]benzenesulfonamide], the “POC (percent of control) HDF” value is reported as 72.7% of control.

Same assay, conditions: compound 100 uM + rotenone (approximately 1.25 μM), two hour incubation
`O=S(=O)(NCc1c[nH]c2ccccc12)c1ccccc1` [Compound 3, N-[(1H-indol-3-yl)methyl]benzenesulfonamide] was tested, and the “POC (percent of control) HDF” value was 91.9% of control.

The compounds below were run on HeLa (cervical cancer) in the same assay as above. Details: Homo sapiens, HeLa, 2 h; compound alone, 100 uM, two hour incubation, control DMSO; read-out: POC (percent of control) HeLa.
Format: cell-based
Compound `O=S(=O)(NCc1c[nH]c2ccccc12)c1ccccc1` [Compound 3, N-[(1H-indol-3-yl)methyl]benzenesulfonamide] has an activity at 100 µM of 99.2%.

Same assay, conditions: compound 100 uM + 2DG (about 10-20 mM), two hour incubation
In the case of `O=S(=O)(NCc1c[nH]c2ccccc12)c1ccccc1` [Compound 3, N-[(1H-indol-3-yl)methyl]benzenesulfonamide], the “POC (percent of control) HeLa” value is reported as 67.6% of control.

Same assay, conditions: compound 100 uM + rotenone (approximately 1.25 μM), two hour incubation
In the case of `O=S(=O)(NCc1c[nH]c2ccccc12)c1ccccc1` [Compound 3, N-[(1H-indol-3-yl)methyl]benzenesulfonamide], the “POC (percent of control) HeLa” value is reported as 85.5% of control.

Each compound was assayed on MCF10A (non-cancerous breast) in the same assay as above. Details: Homo sapiens, MCF-10A, 2 h; compound alone, 100 uM, two hour incubation, control DMSO; read-out: POC (percent of control) MCF10A.
Format: cell-based
With `O=S(=O)(NCc1c[nH]c2ccccc12)c1ccccc1` [Compound 3, N-[(1H-indol-3-yl)methyl]benzenesulfonamide] the activity at 100 µM was 62.5%.

Same assay, conditions: compound 100 uM + 2DG (about 10-20 mM), two hour incubation
For `O=S(=O)(NCc1c[nH]c2ccccc12)c1ccccc1` [Compound 3, N-[(1H-indol-3-yl)methyl]benzenesulfonamide], the “POC (percent of control) MCF10A” value was 72.7% of control.

Same assay, conditions: compound 100 uM + rotenone (approximately 1.25 μM), two hour incubation
In the case of `O=S(=O)(NCc1c[nH]c2ccccc12)c1ccccc1` [Compound 3, N-[(1H-indol-3-yl)methyl]benzenesulfonamide], the “POC (percent of control) MCF10A” value is reported as 110.5% of control.

What follows are compounds tested on MCF7 (breast cancer) in the same assay as above. Details: Homo sapiens, MCF7, 2 h; compound alone, 100 uM, two hour incubation, control DMSO; read-out: POC (percent of control) MCF7.
Format: cell-based
In the case of `O=S(=O)(NCc1c[nH]c2ccccc12)c1ccccc1` [Compound 3, N-[(1H-indol-3-yl)methyl]benzenesulfonamide], the activity at 100 µM is reported as 105%.

Same assay, conditions: compound 100 uM + 2DG (about 10-20 mM), two hour incubation
For `O=S(=O)(NCc1c[nH]c2ccccc12)c1ccccc1` [Compound 3, N-[(1H-indol-3-yl)methyl]benzenesulfonamide], the “POC (percent of control) MCF7” value was 74.5% of control.

Same assay, conditions: compound 100 uM + rotenone (approximately 1.25 μM), two hour incubation
`O=S(=O)(NCc1c[nH]c2ccccc12)c1ccccc1` [Compound 3, N-[(1H-indol-3-yl)methyl]benzenesulfonamide] was tested, and the “POC (percent of control) MCF7” value was 97.3% of control.

Each compound was assayed on MDA-MB (breast cancer) in the same assay as above. Details: 2 h; compound alone, 100 uM, two hour incubation, control DMSO; read-out: POC (percent of control) MDA-MB.
Format: cell-based
In the case of `O=S(=O)(NCc1c[nH]c2ccccc12)c1ccccc1` [Compound 3, N-[(1H-indol-3-yl)methyl]benzenesulfonamide], the activity at 100 µM is reported as 92.4%.

Same assay, conditions: compound 100 uM + 2DG (about 10-20 mM), two hour incubation
In the case of `O=S(=O)(NCc1c[nH]c2ccccc12)c1ccccc1` [Compound 3, N-[(1H-indol-3-yl)methyl]benzenesulfonamide], the “POC (percent of control) MDA-MB” value is reported as 81.8% of control.

Same assay, conditions: compound 100 uM + rotenone (approximately 1.25 μM), two hour incubation
In the case of `O=S(=O)(NCc1c[nH]c2ccccc12)c1ccccc1` [Compound 3, N-[(1H-indol-3-yl)methyl]benzenesulfonamide], the “POC (percent of control) MDA-MB” value is reported as 102.7% of control.

The compounds below were run on NCI-H196 (lung cancer) in the same assay as above. Details: NCI-H196, 2 h; compound alone, 100 uM, two hour incubation, control DMSO; read-out: POC (percent of control) NCI-H196.
Format: cell-based
`O=S(=O)(NCc1c[nH]c2ccccc12)c1ccccc1` [Compound 3, N-[(1H-indol-3-yl)methyl]benzenesulfonamide] was tested, and the activity at 100 µM was 89.6%.

Same assay, conditions: compound 100 uM + 2DG (about 10-20 mM), two hour incubation
With `O=S(=O)(NCc1c[nH]c2ccccc12)c1ccccc1` [Compound 3, N-[(1H-indol-3-yl)methyl]benzenesulfonamide] the “POC (percent of control) NCI-H196” value was 55% of control.

Same assay, conditions: compound 100 uM + rotenone (approximately 1.25 μM), two hour incubation
For `O=S(=O)(NCc1c[nH]c2ccccc12)c1ccccc1` [Compound 3, N-[(1H-indol-3-yl)methyl]benzenesulfonamide], the “POC (percent of control) NCI-H196” value was 89.2% of control.

What follows are compounds tested on PC3 (prostate cancer) in the same assay as above. Details: 2 h; compound alone, 100 uM, two hour incubation, control DMSO; read-out: POC (percent of control) PC3.
Format: cell-based
With `O=S(=O)(NCc1c[nH]c2ccccc12)c1ccccc1` [Compound 3, N-[(1H-indol-3-yl)methyl]benzenesulfonamide] the activity at 100 µM was 85%.

Same assay, conditions: compound 100 uM + 2DG (about 10-20 mM), two hour incubation
With `O=S(=O)(NCc1c[nH]c2ccccc12)c1ccccc1` [Compound 3, N-[(1H-indol-3-yl)methyl]benzenesulfonamide] the “POC (percent of control) PC3” value was 59.4% of control.

Same assay, conditions: compound 100 uM + rotenone (approximately 1.25 μM), two hour incubation
For `O=S(=O)(NCc1c[nH]c2ccccc12)c1ccccc1` [Compound 3, N-[(1H-indol-3-yl)methyl]benzenesulfonamide], the “POC (percent of control) PC3” value was 65.1% of control.

The compounds below were run on SkBr3 (breast cancer) in the same assay as above. Details: Homo sapiens, SK-BR-3, 2 h; compound alone, 100 uM, two hour incubation, control DMSO; read-out: POC (percent of control) SkBr3.
Format: cell-based
In the case of `O=S(=O)(NCc1c[nH]c2ccccc12)c1ccccc1` [Compound 3, N-[(1H-indol-3-yl)methyl]benzenesulfonamide], the activity at 100 µM is reported as 72.8%.

Same assay, conditions: compound 100 uM + 2DG (about 10-20 mM), two hour incubation
In the case of `O=S(=O)(NCc1c[nH]c2ccccc12)c1ccccc1` [Compound 3, N-[(1H-indol-3-yl)methyl]benzenesulfonamide], the “POC (percent of control) SkBr3” value is reported as 79.4% of control.

Same assay, conditions: compound 100 uM + rotenone (approximately 1.25 μM), two hour incubation
For `O=S(=O)(NCc1c[nH]c2ccccc12)c1ccccc1` [Compound 3, N-[(1H-indol-3-yl)methyl]benzenesulfonamide], the “POC (percent of control) SkBr3” value was 97.1% of control.

What follows are compounds tested on T47D (breast cancer) in the same assay as above. Details: Homo sapiens, T47D, 2 h; compound alone, 100 uM, two hour incubation, control DMSO; read-out: POC (percent of control) T47D.
Format: cell-based
For `O=S(=O)(NCc1c[nH]c2ccccc12)c1ccccc1` [Compound 3, N-[(1H-indol-3-yl)methyl]benzenesulfonamide], the activity at 100 µM was 34.9%.

Same assay, conditions: compound 100 uM + 2DG (about 10-20 mM), two hour incubation
With `O=S(=O)(NCc1c[nH]c2ccccc12)c1ccccc1` [Compound 3, N-[(1H-indol-3-yl)methyl]benzenesulfonamide] the “POC (percent of control) T47D” value was 37.1% of control.

Same assay, conditions: compound 100 uM + rotenone (approximately 1.25 μM), two hour incubation
`O=S(=O)(NCc1c[nH]c2ccccc12)c1ccccc1` [Compound 3, N-[(1H-indol-3-yl)methyl]benzenesulfonamide] was tested, and the “POC (percent of control) T47D” value was 58.7% of control.
